Laboratory results: PMC6981274, “Structure and mechanism of a Type III CRISPR defence DNA nuclease activated by cyclic oligoadenylate” (Nature Communications, 2020)

Molecular target: T1, Can1 (CRISPR ancillary nuclease 1; TTHB155) (Thermus thermophilus, UniProt Q53W14)
T1 construct: full length 636 aa plus C-terminal Leu-Glu; synthetic gene, E. coli C43 (DE3) (SeMet protein in B834), N-terminal His tag cut with TEV; monomer
T1 sequence (Q53W14 1-636): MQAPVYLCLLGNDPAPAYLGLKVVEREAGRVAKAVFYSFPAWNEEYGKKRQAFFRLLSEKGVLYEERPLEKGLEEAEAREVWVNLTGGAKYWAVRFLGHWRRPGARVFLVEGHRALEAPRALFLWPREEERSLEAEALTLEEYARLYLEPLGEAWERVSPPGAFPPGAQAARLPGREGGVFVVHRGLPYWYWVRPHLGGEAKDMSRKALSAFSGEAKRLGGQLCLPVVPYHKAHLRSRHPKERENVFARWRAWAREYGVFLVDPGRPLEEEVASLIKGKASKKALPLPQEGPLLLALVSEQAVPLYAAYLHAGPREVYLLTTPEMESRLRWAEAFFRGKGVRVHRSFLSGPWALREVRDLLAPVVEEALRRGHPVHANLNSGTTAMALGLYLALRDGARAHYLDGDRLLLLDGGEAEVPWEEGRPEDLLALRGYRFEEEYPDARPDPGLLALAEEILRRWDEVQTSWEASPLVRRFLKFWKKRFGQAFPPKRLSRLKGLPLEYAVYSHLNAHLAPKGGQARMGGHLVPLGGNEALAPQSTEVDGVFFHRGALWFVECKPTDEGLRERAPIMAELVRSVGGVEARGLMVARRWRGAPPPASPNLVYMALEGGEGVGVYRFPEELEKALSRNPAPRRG
Experiment: X-ray crystal structure ([…] A); also EMSA with […]-labelled cA4, SAXS and nuclease activation
Assay type: binding
Conditions: SeMet protein, 1:2 molar ratio with cA4, pH 6.5; site between the two CARF domains; activator

Nc1ncnc2c1ncn2[C@@H]1O[C@@H]2COP(=O)(O)O[C@H]3[C@@H](O)[C@H](n4cnc5c(N)ncnc54)O[C@@H]3COP(=O)(O)O[C@H]3[C@@H](O)[C@H](n4cnc5c(N)ncnc54)O[C@@H]3COP(=O)(O)O[C@H]3[C@@H](O)[C@H](n4cnc5c(N)ncnc54)O[C@@H]3COP(=O)(O)O[C@H]2[C@H]1O [cA4]
X-ray crystal structure (1.83 A); also EMSA with 32P-labelled cA4, SAXS and nucl: A molecule of cA4 sits at the interface
